# According to article PMC5218480 (PLoS ONE, 2017):
# Test system: MV-4-11 cells
# Test: Gene expression microarray analysis (Affymetrix PrimeView) and GSEA
# Format: cell-based, human
# Parameters: RFU PODN (11730768_x_at) / Fold change /veh PODN (11730768_x_at) / RFU LINC00158 (11744669_a_at) / Fold change /veh LINC00158 (11744669_a_at) / RFU DUSP10 (11751237_a_at) / Fold change /veh DUSP10 (11751237_a_at) / RFU ID3 (11757404_x_at) / Fold change /veh ID3 (11757404_x_at) / RFU PLEKHG5 (11737974_s_at) / Fold change /veh PLEKHG5 (11737974_s_at) / RFU LRRC4B (11730491_at) / Fold change /veh LRRC4B (11730491_at) / RFU GIMAP4 (11747438_a_at) / Fold change /veh GIMAP4 (11747438_a_at) / RFU KRT8 (11758183_x_at) / Fold change /veh KRT8 (11758183_x_at) / RFU CNN1 (11734310_a_at) / Fold change /veh CNN1 (11734310_a_at) / RFU VPS37D (11726825_at) / Fold change /veh VPS37D (11726825_at) / RFU C10orf10 (11716522_x_at) / Fold change /veh C10orf10 (11716522_x_at) / RFU KIR2DL2 /// KIR2DL4 /// KIR2DL5A /// KIR2DL5B /// KIR2DS1 /// KIR2DS2 /// KIR2DS3 /// KIR2DS4 /// KIR3DL3 /// KIR3DL3 /// KIR3DS1 (11738374_at) / Fold change /veh KIR2DL2 /// KIR2DL4 /// KIR2DL5A /// KIR2DL5B /// KIR2DS1 /// KIR2DS2 /// KIR2DS3 /// KIR2DS4 /// KIR3DL3 /// KIR3DL3 /// KIR3DS1 (11738374_at) / RFU C1QL1 (11718748_at) / Fold change /veh C1QL1 (11718748_at) / RFU TMPRSS4 (11747572_a_at) / Fold change /veh TMPRSS4 (11747572_a_at) / RFU HAMP (11756126_x_at) / Fold change /veh HAMP (11756126_x_at) / RFU RNFT2 (11725882_a_at) / Fold change /veh RNFT2 (11725882_a_at) / RFU NR4A2 (11747474_a_at) / Fold change /veh NR4A2 (11747474_a_at) / RFU ABCC12 (11746883_a_at) / Fold change /veh ABCC12 (11746883_a_at) / RFU TMEM136 (11760407_x_at) / Fold change /veh TMEM136 (11760407_x_at) / RFU CLDN22 /// WWC2 (11732394_at) / Fold change /veh CLDN22 /// WWC2 (11732394_at) / RFU HLA-DPB1 (11760878_x_at) / Fold change /veh HLA-DPB1 (11760878_x_at) / RFU SPINT1 (11716480_a_at) / Fold change /veh SPINT1 (11716480_a_at) / RFU GAP43 (11754022_s_at) / Fold change /veh GAP43 (11754022_s_at) / RFU A4GNT (11735810_at) / Fold change /veh A4GNT (11735810_at) / RFU PRB3 (11715151_x_at) / Fold change /veh PRB3 (11715151_x_at) / RFU TUBB4B (11761932_at) / Fold change /veh TUBB4B (11761932_at) / RFU CAPN14 (11732068_a_at) / Fold change /veh CAPN14 (11732068_a_at) / RFU TMCC2 (11721928_a_at) / Fold change /veh TMCC2 (11721928_a_at) / RFU IRGQ (11745062_a_at) / Fold change /veh IRGQ (11745062_a_at) / RFU FAM174B (11720279_a_at) / Fold change /veh FAM174B (11720279_a_at) / RFU TMPRSS4 (11748680_a_at) / Fold change /veh TMPRSS4 (11748680_a_at) / RFU FAM212B (11763350_a_at) / Fold change /veh FAM212B (11763350_a_at) / RFU PLEKHG5 (11743358_a_at) / Fold change /veh PLEKHG5 (11743358_a_at) / RFU ZSCAN30 (11745921_a_at) / Fold change /veh ZSCAN30 (11745921_a_at) / RFU CMKLR1 (11741424_a_at) / Fold change /veh CMKLR1 (11741424_a_at) / RFU LOC101060620 /// MAPK8IP1 (11723275_at) / Fold change /veh LOC101060620 /// MAPK8IP1 (11723275_at) / RFU SPTSSB (11747773_x_at) / Fold change /veh SPTSSB (11747773_x_at) / RFU PRSS12 (11739890_at) / Fold change /veh PRSS12 (11739890_at) / RFU BIN1 (11741810_x_at) / Fold change /veh BIN1 (11741810_x_at) / RFU WNT11 (11732464_a_at) / Fold change /veh WNT11 (11732464_a_at) / RFU C10orf10 (11716521_a_at) / Fold change /veh C10orf10 (11716521_a_at) / RFU C5orf56 (11738089_at) / Fold change /veh C5orf56 (11738089_at) / RFU CYB561 (11721691_x_at) / Fold change /veh CYB561 (11721691_x_at) / RFU ANKRD19P (11752326_a_at) / Fold change /veh ANKRD19P (11752326_a_at) / RFU OR2T12 /// OR2T33 /// OR2T8 (11738714_s_at) / Fold change /veh OR2T12 /// OR2T33 /// OR2T8 (11738714_s_at) / RFU VCAN (11748164_a_at) / Fold change /veh VCAN (11748164_a_at) / RFU JSRP1 (11732532_at) / Fold change /veh JSRP1 (11732532_at) / RFU KRTAP10-11 (11738290_x_at) / Fold change /veh KRTAP10-11 (11738290_x_at) / RFU MYO3A (11730013_a_at) / Fold change /veh MYO3A (11730013_a_at) / RFU EBF3 (11725865_a_at) / Fold change /veh EBF3 (11725865_a_at) / RFU CAMK2N1 (11719241_x_at) / Fold change /veh CAMK2N1 (11719241_x_at) / RFU C5orf56 (11738088_a_at) / Fold change /veh C5orf56 (11738088_a_at) / RFU OLFML3 (11715873_a_at) / Fold change /veh OLFML3 (11715873_a_at) / RFU LOC100653217 /// NTM (11731650_a_at) / Fold change /veh LOC100653217 /// NTM (11731650_a_at) / RFU MAPK11 (11762145_a_at) / Fold change /veh MAPK11 (11762145_a_at) / RFU FIZ1 (11724087_x_at) / Fold change /veh FIZ1 (11724087_x_at) / RFU OASL (11726364_x_at) / Fold change /veh OASL (11726364_x_at) / RFU SOX15 (11748057_x_at) / Fold change /veh SOX15 (11748057_x_at) / RFU CD79A (11719716_a_at) / Fold change /veh CD79A (11719716_a_at) / RFU HIST1H1D (11736915_at) / Fold change /veh HIST1H1D (11736915_at) / RFU CASKIN2 (11723855_a_at) / Fold change /veh CASKIN2 (11723855_a_at) / RFU LOC730098 (11760151_x_at) / Fold change /veh LOC730098 (11760151_x_at) / RFU OR4N2 (11742367_at) / Fold change /veh OR4N2 (11742367_at) / RFU PRRT2 (11749266_a_at) / Fold change /veh PRRT2 (11749266_a_at) / RFU SNX32 (11753110_a_at) / Fold change /veh SNX32 (11753110_a_at) / RFU CDHR5 (11726645_a_at) / Fold change /veh CDHR5 (11726645_a_at) / RFU RCAN1 (11760418_a_at) / Fold change /veh RCAN1 (11760418_a_at) / RFU FAM167A (11723789_a_at) / Fold change /veh FAM167A (11723789_a_at) / RFU FAM26E (11764081_at) / Fold change /veh FAM26E (11764081_at) / RFU ISYNA1 (11749810_s_at) / Fold change /veh ISYNA1 (11749810_s_at) / RFU ACY1 (11761880_at) / Fold change /veh ACY1 (11761880_at) / RFU 11764098_at / Fold change /veh 11764098_at / RFU SAMD14 (11745864_x_at) / Fold change /veh SAMD14 (11745864_x_at) / RFU NPB (11741838_a_at) / Fold change /veh NPB (11741838_a_at) / RFU TMPRSS6 (11731388_a_at) / Fold change /veh TMPRSS6 (11731388_a_at) / RFU KRTAP10-2 (11738614_at) / Fold change /veh KRTAP10-2 (11738614_at) / RFU ARHGAP8 /// PRR5-ARHGAP8 (11727945_x_at) / Fold change /veh ARHGAP8 /// PRR5-ARHGAP8 (11727945_x_at) / RFU KRTAP5-7 /// NADSYN1 (11734609_at) / Fold change /veh KRTAP5-7 /// NADSYN1 (11734609_at) / RFU RASL12 (11751679_a_at) / Fold change /veh RASL12 (11751679_a_at) / RFU CDKN2B (11736163_a_at) / Fold change /veh CDKN2B (11736163_a_at) / RFU PRF1 (11729649_at) / Fold change /veh PRF1 (11729649_at) / RFU, ZNF638 /// ZNF638-IT1 / Fold change vs veh, ZNF638 /// ZNF638-IT1 / RFU, PANK3 / Fold change vs veh, PANK3 / RFU, SH3YL1 / Fold change vs veh, SH3YL1 / RFU, ZEB2 / Fold change vs veh, ZEB2 / RFU, NRIP1 / Fold change vs veh, NRIP1 / RFU, PTTG1IP / Fold change vs veh, PTTG1IP / RFU, CAPN2 / Fold change vs veh, CAPN2 / RFU, MED14 / Fold change vs veh, MED14 / RFU, SNORA58 / Fold change vs veh, SNORA58 / RFU, C1orf63 / Fold change vs veh, C1orf63 / RFU, LRRFIP1 / Fold change vs veh, LRRFIP1 / RFU, NDUFAF7 / Fold change vs veh, NDUFAF7 / RFU, SLC12A2 / Fold change vs veh, SLC12A2 / RFU, IBTK / Fold change vs veh, IBTK / RFU, ESF1 / Fold change vs veh, ESF1 / Fold change vs veh, TMEM50B / RFU, TAOK1 / Fold change vs veh, TAOK1 / RFU, ACBD3 / Fold change vs veh, ACBD3 / RFU, TMA16 / Fold change vs veh, TMA16 / RFU, RWDD3 / Fold change vs veh, RWDD3 / RFU, BCAT1 / Fold change vs veh, BCAT1 / RFU, EDEM3 / Fold change vs veh, EDEM3 / RFU, TMEM33 / Fold change vs veh, TMEM33 / RFU, WDR75 / Fold change vs veh, WDR75 / RFU, AHCTF1 / Fold change vs veh, AHCTF1 / RFU, TFRC / Fold change vs veh, TFRC / RFU, ZDHHC17 / Fold change vs veh, ZDHHC17 / RFU, NOM1 / Fold change vs veh, NOM1 / RFU, ARL8B / Fold change vs veh, ARL8B / RFU, ZBTB11 / Fold change vs veh, ZBTB11 / RFU, TAMM41 / Fold change vs veh, TAMM41 / RFU, KIAA1704 /// LOC100996395 / Fold change vs veh, KIAA1704 /// LOC100996395 / RFU, ING1 / Fold change vs veh, ING1 / RFU, TRMT61B / Fold change vs veh, TRMT61B / RFU, FUBP3 / Fold change vs veh, FUBP3 / RFU, TP53 / Fold change vs veh, TP53 / RFU, TNKS2 / Fold change vs veh, TNKS2 / RFU, ZFP14 / Fold change vs veh, ZFP14 / RFU, ACTR2 / Fold change vs veh, ACTR2 / RFU, PPP3R1 / Fold change vs veh, PPP3R1 / RFU, PIK3R1 / Fold change vs veh, PIK3R1 / RFU, HNRNPA1 / Fold change vs veh, HNRNPA1 / RFU, RNF170 / Fold change vs veh, RNF170 / RFU, ZNF28 / Fold change vs veh, ZNF28 / RFU, RNGTT / Fold change vs veh, RNGTT / RFU, OGT / Fold change vs veh, OGT / RFU, BRD1 / Fold change vs veh, BRD1 / RFU, MARS / Fold change vs veh, MARS / RFU, ZNF655 / Fold change vs veh, ZNF655 / RFU, FAHD1 / Fold change vs veh, FAHD1 / RFU, BDP1 / Fold change vs veh, BDP1 / RFU, LRRCC1 / Fold change vs veh, LRRCC1 / RFU, ARID1A / Fold change vs veh, ARID1A / RFU, ZNF146 / Fold change vs veh, ZNF146 / RFU, ZNF330 / Fold change vs veh, ZNF330 / RFU, GPN3 / Fold change vs veh, GPN3 / RFU, C9orf123 / Fold change vs veh, C9orf123 / RFU, N4BP2L2 / Fold change vs veh, N4BP2L2 / RFU, ARFIP1 / Fold change vs veh, ARFIP1 / RFU, FAM179B / Fold change vs veh, FAM179B / RFU, BCL10 / Fold change vs veh, BCL10 / RFU, UHRF1BP1L / Fold change vs veh, UHRF1BP1L / RFU, BET1 / Fold change vs veh, BET1 / RFU, CNOT2 / Fold change vs veh, CNOT2 / RFU, ZNF268 / Fold change vs veh, ZNF268 / Fold change vs veh, ZNF507 / RFU, DGCR2 / Fold change vs veh, DGCR2 / RFU, WDSUB1 / Fold change vs veh, WDSUB1 / Fold change vs veh, HSP90B1 /// MIR3652 / RFU, ADSS / Fold change vs veh, ADSS / RFU, GK / Fold change vs veh, GK / RFU, ZNF148 / Fold change vs veh, ZNF148 / RFU, TAF9 / Fold change vs veh, TAF9 / RFU, SLC1A5 / Fold change vs veh, SLC1A5 / RFU, SLMO2 / Fold change vs veh, SLMO2 / RFU, ABCC4 / Fold change vs veh, ABCC4 / RFU, LOC101060439 /// RAP1B / Fold change vs veh, LOC101060439 /// RAP1B / RFU, RFX7 / Fold change vs veh, RFX7 / RFU, GTPBP10 / Fold change vs veh, GTPBP10 / RFU, CNEP1R1 / Fold change vs veh, CNEP1R1 / RFU, BIVM-ERCC5 /// ERCC5 / Fold change vs veh, BIVM-ERCC5 /// ERCC5 / RFU, ILF3 / Fold change vs veh, ILF3 / RFU 11762660_at / Fold change /veh 11762660_at / RFU VCAN (11757783_s_at) / Fold change /veh VCAN (11757783_s_at) / RFU DDX43 (11728927_at) / Fold change /veh DDX43 (11728927_at) / RFU KRT8 (11758188_x_at) / Fold change /veh KRT8 (11758188_x_at) / RFU NKD1 (11759106_at) / Fold change /veh NKD1 (11759106_at) / RFU SRD5A1 (11742802_a_at) / Fold change /veh SRD5A1 (11742802_a_at) / RFU TPSAB1 /// TPSB2 (11721975_s_at) / Fold change /veh TPSAB1 /// TPSB2 (11721975_s_at) / RFU GSTM3 (11746129_a_at) / Fold change /veh GSTM3 (11746129_a_at) / RFU IL23R (11737362_x_at) / Fold change /veh IL23R (11737362_x_at) / RFU TMEM51 (11727254_a_at) / Fold change /veh TMEM51 (11727254_a_at) / RFU PIWIL2 (11732686_x_at) / Fold change /veh PIWIL2 (11732686_x_at) / RFU ORM1 (11744905_x_at) / Fold change /veh ORM1 (11744905_x_at) / RFU CCDC152 (11743942_at) / Fold change /veh CCDC152 (11743942_at) / RFU ECM1 (11717891_a_at) / Fold change /veh ECM1 (11717891_a_at) / RFU IL23R (11748794_a_at) / Fold change /veh IL23R (11748794_a_at) / RFU TNFAIP8L3 (11732012_x_at) / Fold change /veh TNFAIP8L3 (11732012_x_at) / RFU MBOAT4 (11741988_at) / Fold change /veh MBOAT4 (11741988_at) / RFU 11764193_at / Fold change /veh 11764193_at / RFU TMEM53 (11763286_at) / Fold change /veh TMEM53 (11763286_at) / RFU MAGEB2 (11727129_at) / Fold change /veh MAGEB2 (11727129_at) / RFU TMEM200A (11744735_a_at) / Fold change /veh TMEM200A (11744735_a_at) / RFU CCDC152 (11751479_a_at) / Fold change /veh CCDC152 (11751479_a_at) / RFU FAM211A (11726209_a_at) / Fold change /veh FAM211A (11726209_a_at) / RFU RGS16 (11746705_a_at) / Fold change /veh RGS16 (11746705_a_at) / RFU VCAN (11755009_s_at) / Fold change /veh VCAN (11755009_s_at) / RFU RHOB (11743442_s_at) / Fold change /veh RHOB (11743442_s_at) / RFU RGS16 (11720943_a_at) / Fold change /veh RGS16 (11720943_a_at) / RFU RGS16 (11720944_at) / Fold change /veh RGS16 (11720944_at) / RFU, VPS4B / Fold change vs veh, VPS4B / RFU, CREB1 / Fold change vs veh, CREB1 / RFU, DNAJC13 / Fold change vs veh, DNAJC13 / RFU, GNAQ / Fold change vs veh, GNAQ / RFU, CDK5R1 / Fold change vs veh, CDK5R1 / RFU, ZRANB3 / Fold change vs veh, ZRANB3 / RFU, CUL4A / Fold change vs veh, CUL4A / RFU, CCNY / Fold change vs veh, CCNY / RFU, UFL1 / Fold change vs veh, UFL1 / RFU, COG3 / Fold change vs veh, COG3 / RFU, DIAPH2 / Fold change vs veh, DIAPH2 / RFU, SKA2 / Fold change vs veh, SKA2 / RFU, AFF3 / Fold change vs veh, AFF3 / RFU, LMF1 / Fold change vs veh, LMF1 / RFU, IPO11 / Fold change vs veh, IPO11 / RFU, DFFB / Fold change vs veh, DFFB / RFU, FOXP1 / Fold change vs veh, FOXP1 / RFU, CARD8 / Fold change vs veh, CARD8 / RFU, STRN3 / Fold change vs veh, STRN3 / RFU, ADK / Fold change vs veh, ADK / RFU, RASSF2 / Fold change vs veh, RASSF2 / RFU, WIPF1 / Fold change vs veh, WIPF1 / RFU, LARP1B / Fold change vs veh, LARP1B / RFU, RASA1 / Fold change vs veh, RASA1 / RFU, RB1 / Fold change vs veh, RB1 / RFU, PPFIA1 / Fold change vs veh, PPFIA1 / RFU, MAT2A / Fold change vs veh, MAT2A / RFU, CCT5 / Fold change vs veh, CCT5 / RFU, WDR92 / Fold change vs veh, WDR92 / RFU, CUX1 / Fold change vs veh, CUX1 / RFU, TTC7A / Fold change vs veh, TTC7A / RFU, TMEM135 / Fold change vs veh, TMEM135 / RFU, DEPTOR / Fold change vs veh, DEPTOR / RFU, CPM / Fold change vs veh, CPM / RFU, DNAJB6 / Fold change vs veh, DNAJB6 / RFU, CACNA2D3 / Fold change vs veh, CACNA2D3 / RFU, DTX4 / Fold change vs veh, DTX4 / RFU, TFCP2 / Fold change vs veh, TFCP2 / RFU, GMCL1 /// GMCL1P1 / Fold change vs veh, GMCL1 /// GMCL1P1 / RFU, AEBP2 / Fold change vs veh, AEBP2 / RFU, SNHG1 /// SNORD22 /// SNORD25 /// SNORD26 /// SNORD27 /// SNORD28 /// SNORD29 /// SNORD31 / Fold change vs veh, SNHG1 /// SNORD22 /// SNORD25 /// SNORD26 /// SNORD27 /// SNORD28 /// SNORD29 /// SNORD31 / Fold change (Aza/veh), C12orf56 (ProbeSet 11735607_a_at) / Fold change (ACY-1035/veh), C12orf56 (ProbeSet 11735607_a_at) / Fold change (Aza/veh), FGFR1OP (ProbeSet 11751329_s_at) / Fold change (ACY-1035/veh), FGFR1OP (ProbeSet 11751329_s_at) / Fold change (Aza/veh), VPS36 (ProbeSet 11739960_a_at) / Fold change (ACY-1035/veh), VPS36 (ProbeSet 11739960_a_at) / RFU SYPL1 (11715823_x_at) / Fold change /veh SYPL1 (11715823_x_at) / RFU IGFBP7 (11715501_s_at) / Fold change /veh IGFBP7 (11715501_s_at) / RFU REEP3 (11722064_at) / Fold change /veh REEP3 (11722064_at) / RFU IGLL1 (11728026_x_at) / Fold change /veh IGLL1 (11728026_x_at): dose or concentration left out as unconfirmed
# Conditions: MV-4-11 cells, 48 hours
smiles,measurement,value
Nc1ccc(-c2cccs2)cc1NC(=O)c1ccc2c(c1)cc(C1CC1)n2CCN1CCOCC1 [ACY-1035],Fold change /veh PRSS12 (11739890_at),1.14
